# Experimental data as given in patent US20050181034A1, “Formulation of liposomal derivatives of phenylalanine” (WILEX AG, priority 2002, published 2005).
# Read-outs that look alike come from different tables or passages of the source.
# Assays:
# [1] = Concentration in plasma, bile and organs after s.c. administration in rats; assay type: in vivo; details: rat; for concentration at 24 h: female, Wistar, sc
# Experimental: (§1) Female wistar rats, 240-300 g body weight (Charles River-Wiga, Sulzfeld), were treated with the active ingredient WX-UK1 in the form of an aqueous solution or with the liposomal formulations 1-4 described in Example 1. The animals each received 1 dose/day over a period of 10 days. The administrations took place in the region of the flank (between shoulder and rear limbs) so that the animals were unable to reach the injection site with their paws. The injection sites were approx. 1 cm apart, no site being injected more than once. The first five injections took place on the left side, and the second five injections on the right side. The dose was usually 3 mg of active ingredient/kg of body weight, i.e. 0.9 mg of active ingredient was administered for an average body weight of 300 g. Radiolabeled active ingredient (3H-WX-UK1) was administered in some cases.
# (§2) 24 h after the last injection, the animals were anaesthetized (ethylurethane, 1.4 g/kg i.p.), and citrated blood was obtained from the retroorbital venous plexus; citrated plasma was obtained by centrifugation at 1200×g for 10 min. The bile duct was then dissected, and bile was obtained for 15 min. Subsequently, the areas of skin at the injection sites were examined and the growth findings on dissection were recorded.
# The animals were then sacrificed, and various organs (heart, kidney, liver, spleen) were dissected. The active ingredient content in the plasma, bile and organs was determined by HPLC [standard method using Nucleosil 7 C18 columns (Macherey-Nagel, Düren), acetonitrile/water/perchloric acid 30/70/0.04, 1 ml/min] after prepurification using Chromabond C18 solid-phase extraction columns (Macherey-Nagel, Duren). When ^3H-WX-UK1 was used, the active ingredient concentration was determined immediately after lyophilization of the samples by measuring the radioactivity in a liquid scintillation counter.
# [2] = Tolerability of s.c. administration in rats (behavior, palpation, dissection, histology scores); assay type: in vivo; design: key to Behavior of the animals (score): 0: normal; slight scratching in 1st hour; 2: scratching and signs of pain; 3: still marked impairment after 2 h; key to Palpation consecutive (score): 0: unremarkable; 1: slight, isolated thickenings/indurations; 2: persistent thickenings/indurations, coalescing; 3: additional lesions, inflammations; details: rat
# Experimental: as §1
# The animals were weighed before each injection and observed for 2 h after each injection, and before each further injection the previous injection sites were palpated. The behavior of the animals and the palpation findings were recorded.
# The following score was used to evaluate the observed impairments:
# Behavior of the animals after the injection (2 h)
# Consecutive Palpation Findings
# as §2
# The following score was used to evaluate the growth changes observed:
# Final Observations, Growth Findings during Dissection
# Skin samples were dissected from the regions of the injections, fixed in formalin and examined histologically (hematoxylin/eosin stain). The following score was used to evaluate the histologically visible changes: […]
# [3] = s.c. 3 mg/kg 1 dose/day 10 days, 24 h after last injection, single experiment, listed as Control, 3 mg/kg
smiles,measurement,setting,value
"CCOC(=O)N1CCN(C(=O)[C@H](Cc2cccc(C(=N)N)c2)NS(=O)(=O)c2c(C(C)C)cc(C(C)C)cc2C(C)C)CC1 [WX-UK1, Nα-(2,4,6-triisopropylphenylsulfonyl)-3-amidino-(L)-phenylalanine 4-ethoxycarbonylpiperazide]",concentration at 24 h,"[1]; bile, 3 mg/kg, s.c. 3 mg/kg 1 dose/day 10 days, 24 h after last injection, single experiment, read-out: Concentration Bile",3100 ng/mL
same,concentration at 24 h,"[1]; heart, 3 mg/kg, s.c. 3 mg/kg 1 dose/day 10 days, 24 h after last injection, single experiment, read-out: Organ content Heart",840 ng/g
same,concentration at 24 h,"[1]; kidney, 3 mg/kg, s.c. 3 mg/kg 1 dose/day 10 days, 24 h after last injection, single experiment, read-out: Organ content Kidney",2300 ng/g
same,concentration at 24 h,"[1]; liver, 3 mg/kg, s.c. 3 mg/kg 1 dose/day 10 days, 24 h after last injection, single experiment, read-out: Organ content Liver",180 ng/g
same,concentration at 24 h,"[1]; plasma, 3 mg/kg, s.c. 3 mg/kg 1 dose/day 10 days, 24 h after last injection, single experiment, read-out: Concentration Plasma",< 50 ng/mL
same,concentration at 24 h,"[1]; spleen, 3 mg/kg, s.c. 3 mg/kg 1 dose/day 10 days, 24 h after last injection, single experiment, read-out: Organ content Spleen",690 ng/g
same,Organ content Heart,[1]; [3],1.0 µg/g
same,Organ content Kidney,[1]; [3],2.5 µg/g
same,Organ content Liver,[1]; [3],0.36 µg/g
same,Organ content Spleen,[1]; [3],0.65 µg/g
same,Concentration in the plasma,"[1]; s.c., determined only by using 3H-WX-UK1",< 100 ng/mL
same,Behavior of the animals (score),[2]; 2 h after s.c. injection,1
same,"Impression final (score, findings during dissection)",[2]; 24 h after last injection,2.5
same,"Skin histology (FIG. 1, FIG. 3, magnification 25x)",[2]; after s.c. administration,strong inflammatory reaction
same,Palpation consecutive (score),[2]; previous s.c. injection sites,1
same,"Score (total impairment), Mean","[2]; s.c., mean of the two experiments",Mean = 7.5
same,Score (total impairment of the animals),"[2]; s.c., sum of the part scores",7.5
